Measured values reported in US20210085711A1 (Japan Tobacco Inc., priority 2017, published 2021).
Like-named read-outs stand apart in the source and are kept apart here.

Key:
[1] = system: patients with hypermenorrhea and/or patients with hypermenorrhea-associated gynecologic diseases (iron-deficiency anemia patients); conditions: for Hb change, End of administration, Mean: change from baseline; for Williams test, Mean of change amount from the baseline at the end of administration, JTT-751-placebo: difference to placebo
Description: (§1) This test was a three-stage safety and efficacy clinical trial at multi-facilities. The first stage was a pre-observation period (Day −40 to Day −1), the second stage was an administration period (Day 1 to Day 48) (efficacy and safety evaluation period), and the third stage was a post-observation period (Day 49 to Day 63) (efficacy and safety evaluation period). The safety evaluation and efficacy evaluation were performed by multi-facility collaboration, placebo control, random allocation, double-blind trial, and parallel group comparison test.
(§2) The administration period of the trial drug is seven weeks which starts from the next day of the Week 0 visit to the day before the Week 7 visit, provided that the trial drug is not taken on the scheduled Week 3 visit.
Amount of change in blood hemoglobin value (Hb) from Week 0 at the end of administration
The mean of each administration group is used as a placebo group (μ1), a 250 mg group (μ2), a 500 mg group (μ3), a 1000 mg group (μ4), a 1500 mg group (μ5).
(§3) The blood hemoglobin value (Hb), the serum iron level, the serum ferritin value, the total iron-binding capacity (TIBC) and the transferrin saturation rate (TSAT), and the mean corpuscular volume (MCV) were each examined at the observation start date, Week 0, Week 3, Week 7, the end of administration and the consultation at nine weeks after Week 0; the hepcidin concentration (Hepcidin 25) and the serum soluble transferrin receptor concentration (sTfR) were each examined on Week 0, Week 3 and Week 7 and at the end of administration; and the C-terminal FGF23 value (cFGF23) and the intact FGF23 value (iFGF23) were each examined on Week 0 and Week 7 and at the end of administration.

[2] = system: patients with hypermenorrhea and/or patients with hypermenorrhea-associated gynecologic diseases (iron-deficiency anemia patients); assay: Phase II clinical trial of JTT-751: intact FGF23 value (iFGF23); type: in vivo, human
Description: as §1
(§4) (1) Japanese patients who are 20 or more and less than 65 years old at the time of agreement and can visit an outpatient clinic (2) Patients who have an Hb value (measured using HemoCue® Hb 201 DM analyzer in the institute of clinical practice) of 7.0 g/dL or more and less than 11.0 g/dL on both the observation start date and Week 0, and the difference between the two days is 1.0 g/dL or less (3) Patients with a TIBC of 360 μg/dL or more or a serum ferritin value of less than 12 ng/mL on the observation start date
as §2, §3

[3] = system: patients with hypermenorrhea and/or patients with hypermenorrhea-associated gynecologic diseases (iron-deficiency anemia patients); assay: Phase II clinical trial of JTT-751: serum iron level; type: in vivo, human
Description: as §1, §4, §2
(2) Subsidiary evaluation items 1) Erythrocyte-related examination values and amount of change from Week 0 at each observation date 2) Iron-related test values and amount of change from Week 0 at each observation date 3) Achievement rate of target Hb value (female; 12.0 g/dL or more, male; 13.0 g/dL or more) at each observation date 4) Achievement rate of 1.0 g/dL or more and achievement rate of 2.0 g/dL or more in Hb value improvement from Week 0 at each observation date 5) Average daily change of Hb value from Week 0 to each observation date
as §3

[4] = 250 mg/day, 9 weeks after Week 0
[5] = 250 mg/day, End of administration
[6] = 500 mg/day, 9 weeks after Week 0
[7] = 500 mg/day, End of administration
[8] = 1000 mg/day, 9 weeks after Week 0
[9] = 1000 mg/day, End of administration
[10] = 1500 mg/day, 9 weeks after Week 0
[11] = 1500 mg/day, End of administration
[12] = End of administration, JTT-751 250 mg group
[13] = End of administration, JTT-751 500 mg group
[14] = End of administration, JTT-751 1000 mg group
[15] = End of administration, JTT-751 1500 mg group
[16] = Week 0 (baseline), JTT-751 250 mg group
[17] = Week 0 (baseline), JTT-751 500 mg group
[18] = Week 0 (baseline), JTT-751 1000 mg group
[19] = Week 0 (baseline), JTT-751 1500 mg group
[20] = 250 mg/day, Week 3 (Week 0 not given)
[21] = 500 mg/day, Week 3 (Week 0 not given)
[22] = 1000 mg/day, Week 3 (Week 0 not given)
[23] = 1500 mg/day, Week 3 (Week 0 not given)

## Ferric citrate [JTT-751]
[1]; 250 mg/day
  Hb measured value, Base line, Mean: 9.47 g/dL
  Hb measured value, End of administration, Mean: 11.72 g/dL
  Williams test, Mean of change amount from the baseline at the end of administration, Mean: 2.25 g/dL
  Hb change, End of administration, Mean: 2.25 g/dL
  Williams test, Mean of change amount from the baseline at the end of administration, JTT-751-placebo: 2.50 g/dL
[1]; [4]
  Hb, Median: 11.60 g/dL
[1]; [5]
  Hb, Median: 11.80 g/dL
[1]; 250 mg/day, Observation start date (before administration)
  Hb, Median: 9.55 g/dL
[1]; 250 mg/day, Week 0 (baseline)
  Hb, Median: 9.80 g/dL
[1]; 250 mg/day, Week 3
  Hb, Median: 10.75 g/dL
[1]; 250 mg/day, Week 7
  Hb, Median: 11.80 g/dL
[1]; 500 mg/day
  Hb measured value, Base line, Mean: 8.98 g/dL
  Hb measured value, End of administration, Mean: 11.71 g/dL
  Williams test, Mean of change amount from the baseline at the end of administration, Mean: 2.73 g/dL
  Hb change, End of administration, Mean: 2.73 g/dL
  Williams test, Mean of change amount from the baseline at the end of administration, JTT-751-placebo: 2.98 g/dL
[1]; [6]
  Hb, Median: 11.70 g/dL
[1]; [7]
  Hb, Median: 11.90 g/dL
[1]; 500 mg/day, Observation start date (before administration)
  Hb, Median: 9.30 g/dL
[1]; 500 mg/day, Week 0 (baseline)
  Hb, Median: 8.95 g/dL
[1]; 500 mg/day, Week 3
  Hb, Median: 10.10 g/dL
[1]; 500 mg/day, Week 7
  Hb, Median: 11.90 g/dL
[1]; 1000 mg/day
  Hb measured value, Base line, Mean: 9.66 g/dL
  Hb measured value, End of administration, Mean: 12.72 g/dL
  Williams test, Mean of change amount from the baseline at the end of administration, Mean: 3.05 g/dL
  Hb change, End of administration, Mean: 3.05 g/dL
  Williams test, Mean of change amount from the baseline at the end of administration, JTT-751-placebo: 3.30 g/dL
[1]; [8]
  Hb, Median: 12.70 g/dL
[1]; [9]
  Hb, Median: 12.90 g/dL
[1]; 1000 mg/day, Observation start date (before administration)
  Hb, Median: 9.90 g/dL
[1]; 1000 mg/day, Week 0 (baseline)
  Hb, Median: 9.80 g/dL
[1]; 1000 mg/day, Week 3
  Hb, Median: 11.80 g/dL
[1]; 1000 mg/day, Week 7
  Hb, Median: 12.90 g/dL
[1]; 1500 mg/day
  Hb measured value, Base line, Mean: 9.38 g/dL
  Hb measured value, End of administration, Mean: 12.75 g/dL
  Williams test, Mean of change amount from the baseline at the end of administration, Mean: 3.37 g/dL
  Hb change, End of administration, Mean: 3.37 g/dL
  Williams test, Mean of change amount from the baseline at the end of administration, JTT-751-placebo: 3.62 g/dL
[1]; [10]
  Hb, Median: 12.70 g/dL
[1]; [11]
  Hb, Median: 13.00 g/dL
[1]; 1500 mg/day, Observation start date (before administration)
  Hb, Median: 9.40 g/dL
[1]; 1500 mg/day, Week 0 (baseline)
  Hb, Median: 9.40 g/dL
[1]; 1500 mg/day, Week 3
  Hb, Median: 11.60 g/dL
[1]; 1500 mg/day, Week 7
  Hb, Median: 13.00 g/dL
[1]; 250-1500 mg/day
  blood hemoglobin value, dose dependence: increases along with the dose increase
[1]; Week 0, Week 3 and Week 7
  blood hemoglobin value, time-dependent change: increased along with the continuous administration
[1]; nine weeks after Week 0 (two weeks after completion of administration)
  blood hemoglobin value after completion of administration: did not decrease
[1]; regardless of the dose amount (250-1500 mg/day), end of administration
  blood hemoglobin value compared to the placebo administration group: significantly increase
[2]; 1000 mg administration group and 1500 mg administration group
  intact FGF23 value (iFGF23), time-dependent change: decreased along with the continuous administration of the JTT-751 tablet and improved
[2]; [12]
  iFGF23, Mean: 34.74 pg/mL
  iFGF23, Median: 33.65 pg/mL
[2]; [13]
  iFGF23, Mean: 41.06 pg/mL
  iFGF23, Median: 38.20 pg/mL
[2]; [14]
  iFGF23, Mean: 33.62 pg/mL
  iFGF23, Median: 30.40 pg/mL
[2]; [15]
  iFGF23, Mean: 36.30 pg/mL
  iFGF23, Median: 35.00 pg/mL
[2]; [16]
  iFGF23, Mean: 36.73 pg/mL
  iFGF23, Median: 33.90 pg/mL
[2]; [17]
  iFGF23, Mean: 43.53 pg/mL
  iFGF23, Median: 42.05 pg/mL
[2]; [18]
  iFGF23, Mean: 41.93 pg/mL
  iFGF23, Median: 42.50 pg/mL
[2]; [19]
  iFGF23, Mean: 46.09 pg/mL
  iFGF23, Median: 44.00 pg/mL
[2]; Week 7, JTT-751 250 mg group
  iFGF23, Mean: 34.74 pg/mL
  iFGF23, Median: 33.65 pg/mL
[2]; Week 7, JTT-751 500 mg group
  iFGF23, Mean: 41.06 pg/mL
  iFGF23, Median: 38.20 pg/mL
[2]; Week 7, JTT-751 1000 mg group
  iFGF23, Mean: 33.62 pg/mL
  iFGF23, Median: 30.40 pg/mL
[2]; Week 7, JTT-751 1500 mg group
  iFGF23, Mean: 36.30 pg/mL
  iFGF23, Median: 35.00 pg/mL
[3]; [4]
  Serum iron, Mean: 14.3 µg/dL
  Serum iron, Median: 13.0 µg/dL
[3]; [5]
  Serum iron, Mean: 30.4 µg/dL
  Serum iron, Median: 25.0 µg/dL
[3]; [20]
  Serum iron, Mean: 19.9 µg/dL
  Serum iron, Median: 18.5 µg/dL
[3]; 250 mg/day, Week 7
  Serum iron, Mean: 30.4 µg/dL
  Serum iron, Median: 25.0 µg/dL
[3]; [6]
  Serum iron, Mean: 24.6 µg/dL
  Serum iron, Median: 18.0 µg/dL
[3]; [7]
  Serum iron, Mean: 40.1 µg/dL
  Serum iron, Median: 42.5 µg/dL
[3]; [21]
  Serum iron, Mean: 29.6 µg/dL
  Serum iron, Median: 13.5 µg/dL
[3]; 500 mg/day, Week 7
  Serum iron, Mean: 40.1 µg/dL
  Serum iron, Median: 42.5 µg/dL
[3]; 1000 mg administration group and 1500 mg administration group, Week 3
  serum iron level on Week 3: improved to a normal value
[3]; [8]
  Serum iron, Mean: 40.3 µg/dL
  Serum iron, Median: 38.0 µg/dL
[3]; [9]
  Serum iron, Mean: 48.3 µg/dL
  Serum iron, Median: 52.0 µg/dL
[3]; [22]
  Serum iron, Mean: 55.5 µg/dL
  Serum iron, Median: 36.0 µg/dL
[3]; 1000 mg/day, Week 7
  Serum iron, Mean: 48.3 µg/dL
  Serum iron, Median: 52.0 µg/dL
[3]; [10]
  Serum iron, Mean: 38.1 µg/dL
  Serum iron, Median: 34.0 µg/dL
[3]; [11]
  Serum iron, Mean: 54.4 µg/dL
  Serum iron, Median: 46.0 µg/dL
[3]; [23]
  Serum iron, Mean: 53.1 µg/dL
  Serum iron, Median: 27.0 µg/dL
[3]; 1500 mg/day, Week 7
  Serum iron, Mean: 54.4 µg/dL
  Serum iron, Median: 46.0 µg/dL
[3]; continuous administration, Week 0, Week 3 and Week 7
  serum iron level, increased to a normal value: about 50 μg/dL
